Consider 9 compounds from patent US7276510B2, “HIV replication inhibitors” (Janssen Pharmaceutica, Inc., priority 2000, dated 2007).

For orientation: melting point means the temperature, or range, at which the solid turns liquid.

One data set concerns HIV-infected MT-4 cells. In words: Inhibition of the HIV-induced cytopathic effect in MT-4 cells (MTT). The data set is classed as cell-based. Particulars: for IC50: HIV-infected MT-4 cells, MTT, OD 540 nm. As to the method: (§1) A rapid, sensitive and automated assay procedure was used for the in vitro evaluation of anti-HIV agents. An […] T4-cell line, MT-4, which was previously shown (Koyanagi et al., Int. J. Cancer, 36, 445-451, 1985) to be highly susceptible to and permissive for HIV infection, served as the target cell line. Inhibition of the HIV-induced cytopathic effect was used as the end point. The viability of both HIV- and mock-infected cells was assessed spectrophotometrically via the in situ reduction of 3-(4,5-dimethylthiazol-2-yl)-2,5-diphenyltetrazolium bromide (MTT). […] The percent protection achieved by the compound in HIV-infected cells was calculated by the following formula:
(§2) [formula] whereby (ODT)HIV is the optical density measured with a given concentration of the test compound in HIV-infected cells; (ODC)HIV is the optical density measured for the control untreated HIV-infected cells; (ODC)MOCK is the optical density measured for the control untreated mock-infected cells; all optical density values were determined at 540 nm. […] The ratio of CC50 to IC50 was defined as the selectivity index (SI).
A general note: Cytopathic effects are the visible damage that an infection or toxin causes in cultured cells.

The test system of a further data set is mock-infected MT-4 cells. Nature of the data set: Cytotoxicity in mock-infected MT-4 cells (MTT). The data set is classed as cell-based. Particulars: read-out: CC50 (50% cytotoxic concentration), OD 540 nm. As to the method:
as §1, §2

A short description of data set [1]: Cytotoxicity in mock-infected MT-4 cells (MTT). The data set is classed as cell-based. Conditions: human, OD 540 nm. As to the method: as §1, §2
The mark [2] stands for this setting: read-out: IC50 (50% inhibitory concentration; dose achieving 50% protection).

The structures appear in SMILES notation. Read-outs that look alike come from different tables or passages of the source. A value given as a limit tells only on which side of the number the result lay.

Take `Cc1cc(C)c(Oc2cc(C(F)(F)F)nc(Nc3ccc(C#N)cc3)n2)c(C)c1` [Compound 25]: the IC50 with HIV-infected MT-4 cells (setting [2]) came to 0.079 µM. For the same compound, in the data set with mock-infected MT-4 cells, the CC50 was greater than 100 µM.

`Cc1cc(C)c(Oc2nc(Nc3ccc(C#N)cc3)nc(C(N)=O)n2)c(C)c1` [Compound 26]: in the data set with HIV-infected MT-4 cells (setting [2]), the IC50 amounted to 0.001 µM. Moreover, the CC50 with mock-infected MT-4 cells came out at 2 µM.

As for `N#Cc1ccc(Nc2nc(Cc3c(Cl)cccc3Cl)nc(N3C(=O)CCC3=O)n2)cc1` [Compound 48], in the data set with HIV-infected MT-4 cells (setting [2]), the IC50 was found to be 0.0079 µM. Moreover, in the data set on mock-infected MT-4 cells, the CC50 is greater than 200 µM.

Consider `CSc1nc(Nc2ccc(C#N)cc2)nc(Nc2c(C)cc(C)cc2C)n1` [Compound 20], for which, in the data set with HIV-infected MT-4 cells (setting [2]), the IC50 was 0.002 µM. For the same compound, in the data set with mock-infected MT-4 cells, the CC50 turned out to be 3.98 µM.

As to `Cc1cc(Cl)cc(Cl)c1Nc1nc(Cl)nc(Nc2ccc(C#N)cc2)n1` [Compound 109], in the data set with HIV-infected MT-4 cells (setting [2]), the IC50 is 0.00398 µM. Besides, the CC50 with mock-infected MT-4 cells is 12.6 µM.

For the compound `CCOc1nc(Cc2c(Cl)cccc2Cl)nc(Nc2ccc(C#N)cc2)n1` [Compound 58], the IC50 with HIV-infected MT-4 cells (setting [2]) came out at 0.0251 µM. The CC50 in the data set with mock-infected MT-4 cells came to 50.1 µM.

Compound `CSc1nc(Cc2c(Cl)cccc2Cl)nc(Nc2ccc(C#N)cc2)n1` [Compound 7] yielded a melting point of 184 to 185 °C. Also, the “SI (selectivity index, ratio of CC50 to IC50)” value in the data set with HIV-infected MT-4 cells (CC50/IC50 in MT-4 cells) stood at 1990. Moreover, the IC50 in the data set with HIV-infected MT-4 cells (Human immunodeficiency virus 1, MT4, read-out: IC50 (50% inhibitory concentration; dose achieving 50% protection)) was determined as 0.02 µM. The same compound came in with a CC50 in data set [1] of 39.8 µM.

As to `COCc1cc(Oc2c(Br)cc(C#N)cc2Br)nc(Nc2ccc(C#N)cc2)n1` [Compound 27], the IC50 with HIV-infected MT-4 cells (setting [2]) stood at 0.01 µM. Also, the CC50 with mock-infected MT-4 cells was greater than 10 µM.

In the case of `N#Cc1ccc(Nc2nc(Cl)nc(Nc3c(Cl)cc(Cl)cc3Cl)n2)cc1` [Compound 85], in the data set with HIV-infected MT-4 cells (setting [2]), the IC50 was 0.02 µM. Moreover, the CC50 in the data set with mock-infected MT-4 cells is 50.1 µM.
